One data set deals with Cys442Ala ITK (Homo sapiens, UniProt Q08881, C442A). Briefly: Inhibition of Cys442Ala ITK mutant. It is filed as biochemical. Conditions: similar conditions.
Data set [1] in a line: Glutathione reactivity assay. It is filed as physicochemical. Conditions: 37° C. As to the method: The reactivity of acrylamides with glutathione was determined by measuring the disappearance of starting material and appearance of the adduct with glutathione in HPLC-MS spectra as a function of time. All the stock solutions and solvents were bubbled with nitrogen and all reactions were run under nitrogen at 37° C. A 250 μL volume of 20 mM test compound in DMSO was mixed with 250 μL of 2.0 mM indoprofen (used as internal standard) in DMSO and 4.5 mL of 11.1 mM glutathione in 100 mM potassium phosphate buffer (pH 7.4). Each reaction contained 1 mM test compound, 0.1 mM indoprofen, and 10 mM glutathione in 100 mM potassium phosphate buffer and 10% DMSO. The reaction mixture was stirred at 37° C. for 5 hours and sampled for HPLC-MS analysis every hour. The reaction product, internal standard and starting materials were separated by liquid chromatography using an Agilent Eclipse XBD-C18 column (4.6×150 mm, 3.5 um) and quantified by UV absorption. The mobile phase consisted of solvent A (water) and solvent B (acetonitrile), employing a gradient of 10% to 95% solvent B over 10 min.

The subject of a further data set is PLCγ1 phosphorylation. Briefly: Inhibition of PLCγ1 phosphorylation in Jurkat cells. It is filed as cell-based, human. The note with it: anti-CD3. As to the method: Jurkat human acute T cell leukemia cell line (ATCC, TIB-152) was cultured in RPMI 1640 medium supplemented with Penicillin-Streptomycin (Gibco) and 10% fetal bovine serum (FBS) at 37° C. and 5% CO2. […] The cell pellet was resuspended in NP40 lysis buffer (Invitrogen) containing protease and phosphatase inhibitors cocktail (Cell Signaling Technology), incubated for 30 minutes on ice, and centrifuged at 15, 000×g for 10 minutes. The lysate supernatant from each condition containing 50 μg of total protein was resolved on an 8% Bis-Tris gel (Invitrogen) under reducing condition and transferred onto a nitrocellulose membrane (Invitrogen) using an iBlot2 gel transfer device. Unless specified otherwise, all reagents described above were purchased from Thermo Fisher Scientific. Membranes were blocked for 1 hour at room temperature and incubated overnight at 4° C. with primary antibodies (1:1000 dilution) in Odyssey blocking buffer (LI-COR) with 0.2% Tween 20. Membranes were washed 4 times (5 min each) in Tris-buffered saline, 0.10% Tween 20 and incubated with IRDye 800CW Anti-Rabbit IgG and IRDye 700CW Anti-Mouse IgG (LI-COR) secondary antibodies (1:20,000 dilution) for 1 hour at room temperature. After washes, membranes were imaged in the LI-COR Odyssey® Fc Imaging System. […]

Data set [2] deals with IL-4 production by CD4+ T cells. Briefly: T cell activation, IL-4+CD4+ T cells. It is filed as cell-based, human. The method, then:
Fresh PBMCs from healthy human donors were centrifuged and reconstituted at 0.312×10^6 cells/mL in RPMI 1640 medium+10% heat-inactivated FBS+1× penicillin streptomycin and 100,000 cells/well were distributed into 24 well tissue culture plate. Cells were incubated at 37° C. for 1 hour, followed by the addition of CPI 596 or vehicle. The cells were then incubated at 37° C. for 1 hour, followed by the addition of […] anti CD3 and anti CD28 (both eBioscience). Cells were incubated at 37° C. for 6 days, with supplemental media supplied on day 3. On Day 6, the cells were transferred to a 96 deep well plate, washed, and treated with 50 nM phorbol 12-myristate 13-acetate, 1 μg/mL ionomycin, and 1 μg/mL brefeldin A, and then incubated at 37° C. for 4 hours. The cells were then fixed and permeabilized using eBioscience Fox3/transcription factor staining buffer. Cells were treated with Fc block (BioLegend) and then stained with CD3 BV605, CD45RA PerCP-Cy5.5, Tbet PE, IFNγ AF488, IL-4 APC (BioLegend), CD4 PE-Cy7, cPARP AF700 (BD Biosciences), and CD8 Krome Orange (Beckman Coulter). For flow cytometry, 300,000 cells were acquired on Cytoflex (Beckman Coulter). Data were analyzed using Flowjo software. The percentage of CD4^+ T cells that were positive for IFNγ and IL 4 were reported.

The test system of data set [3] is NK cells with anti-CD20 bound Jeko target cells. Briefly: NK-mediated ADCC. It is filed as cell-based, human. Conditions: 1 μM, 18 hours. As to the method: FIGS. 9A-9B show selective Inhibition of ITK preserved NK-mediated ADCC. FIG. 9A: Lymphocyte subsets (5 donors/cell type) were purified from the peripheral blood of 22 healthy donors. The expression of ITK and RLK, relative to the house keeping gene IPO8, were determined by qPCR. FIG. 9B: Peripheral blood NK cells from 7 healthy donors were co-cultured at a 10:1 ratio with anti-CD20 bound target cells (B-cell lymphoma line Jeko) and with inhibitors for 18 hours. Cell lysis was detected by viability dye using flow cytometry. The % dead target cells in samples treated with DMSO were set as the maximum lysis (100%).
NK cells express both ITK and RLK (FIG. 9A). […] Peripheral blood NK cells from 7 healthy donors were co-cultured with an anti-CD20 bound target B-cell line at a ratio of 10:1 for 18 hours in the presence of the inhibitors over a range of concentrations up to 1 μM. Cell lysis was detected by flow cytometry using viability dye staining.

Data set [4] relates to MRL lymphoproliferation strain mice. Briefly: MRL/lpr lupus model. Conditions: mouse, in vivo.
In data set [5] the test system is imiquimod-induced psoriasis. Briefly: Imiquimod-induced model of psoriasis. Conditions: in vivo.
In another data set the test system is human CD4 T cells. Briefly: T cell exhaustion markers. It is filed as cell-based.

Where only a bound is given, the exact number is not on record here.

Cys442Ala ITK, sequence (Q08881 whole entry C442A): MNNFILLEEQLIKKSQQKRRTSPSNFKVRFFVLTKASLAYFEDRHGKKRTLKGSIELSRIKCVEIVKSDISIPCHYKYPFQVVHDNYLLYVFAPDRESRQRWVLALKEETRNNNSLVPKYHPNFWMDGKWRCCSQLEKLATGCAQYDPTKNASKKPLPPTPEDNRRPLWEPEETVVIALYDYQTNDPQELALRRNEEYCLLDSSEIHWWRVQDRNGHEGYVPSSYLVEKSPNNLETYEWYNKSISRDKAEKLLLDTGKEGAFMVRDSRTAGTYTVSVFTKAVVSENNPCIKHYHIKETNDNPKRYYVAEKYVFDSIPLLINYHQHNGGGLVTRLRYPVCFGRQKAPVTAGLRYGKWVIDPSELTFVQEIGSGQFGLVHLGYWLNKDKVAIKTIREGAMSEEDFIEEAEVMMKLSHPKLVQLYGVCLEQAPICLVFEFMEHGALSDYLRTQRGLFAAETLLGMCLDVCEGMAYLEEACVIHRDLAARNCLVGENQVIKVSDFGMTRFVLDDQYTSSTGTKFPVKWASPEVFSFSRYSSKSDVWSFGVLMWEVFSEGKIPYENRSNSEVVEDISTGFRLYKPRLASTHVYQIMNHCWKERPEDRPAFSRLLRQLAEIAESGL
Experimental for Cys442Ala ITK: Two biochemical assays of kinase activity were employed. […] In the Lanthascreen assay each kinase (1.0 nM) was incubated with compound for 120 minutes at 22° C. in a buffer composed of 50 mM HEPES (pH 7.5), 10 mM MgCl2, 1 mM EGTA, and 0.01% Brij 35. The kinase reaction was initiated by the addition of ATP (50 μM final) and fluorescein-poly-Glu-Tyr peptide (200 nM final). The reaction was quenched after 60 minutes at 22° C., and phospho-peptide product detected by the addition of EDTA (10 mM final) and terbium PY20 antibody (2 nM final). The phospho-peptide product was measured by time-resolved fluorescence resonance energy transfer (TR FRET) between the terbium of the antibody and fluorescein of the phospho-peptide using an EnVision plate reader (PerkinElmer, Waltham, MA) equipped to detect the TR-FRET signal (excitation 320 nm, dual emission at 495 nm and 520 nm). All reagents including recombinant human kinases, fluorescein-poly-Glu-Tyr peptide, terbium PY20 antibody, and kinase buffer A were purchased from Invitrogen.
Inhibition of kinase activity was measured by construction of a concentration response curve of the inhibitor. […] The response reading was normalized according to equation 1 and plotted against the Log base 10 transformed values of the molar concentration of inhibitor. The IC50 value was obtained by fitting equation 2 to the data. […]

Turning to `C=CC(=O)N1CCCN(C(=O)c2cc(Sc3cnc(NC(=O)C4CC4)s3)c(C)cc2OC)C[C@H]1C` [CPI-818], the “change of IC50 at Cys442Ala ITK compared to wild-type” value at Cys442Ala ITK is greater than 100 fold. Besides, the “stability of acrylamide in presence of glutathione” value in data set [1] (3 h) was “minimal loss”. Also, in data set [1] (physiological glutathione, 5 h), the “loss in presence of glutathione” value is recorded as 4%. In addition, in the data set on PLCγ1 phosphorylation, the “phosphorylation of PLCγ1” value is “dose-dependently inhibited”. Further, in data set [2] (10 μM), the IL-4 production entry is recorded as “complete inhibition”. For the same compound, the inhibition (as a rule, the percentage by which the read-out fell short of the control) at 1 µM in data set [2] (Homo sapiens, CD4+ T, 1 μM, average, read-out: inhibition of percentage of CD4+ T cells that produced IL-4) was found to be 64%. Also, in data set [3], the “decrease of ADCC” value was found to be 20%. For the same compound, in data set [4], the lymphadenopathy result is given as “inhibits” and the proteinuria result is given as “inhibits”. In addition, in data set [5], the dermal inflammation entry is given as “significantly reduced” and the skin thickening entry is given as “significantly reduced”. The “T cell exhaustion: granzyme B and IFNγ levels” value in the data set with human CD4 T cells was “reverses T cell exhaustion”. In addition, the “LAG3, TIGIT and PD-1” value with human CD4 T cells (various concentrations) was “downregulate biomarkers of T cell exhaustion”.
